In patent publication US4866076A, “Biologically active compounds” (Smith Kline & French Laboratories Limited, priority 1987, dated 1989):
Structures can show the parent of a compound that is named as a salt.

Target: T1, TXA2 receptors (Homo sapiens, UniProt P21731)
T1 construct: from tissue; host or cells: human platelets
T1 sequence (P21731 1-343): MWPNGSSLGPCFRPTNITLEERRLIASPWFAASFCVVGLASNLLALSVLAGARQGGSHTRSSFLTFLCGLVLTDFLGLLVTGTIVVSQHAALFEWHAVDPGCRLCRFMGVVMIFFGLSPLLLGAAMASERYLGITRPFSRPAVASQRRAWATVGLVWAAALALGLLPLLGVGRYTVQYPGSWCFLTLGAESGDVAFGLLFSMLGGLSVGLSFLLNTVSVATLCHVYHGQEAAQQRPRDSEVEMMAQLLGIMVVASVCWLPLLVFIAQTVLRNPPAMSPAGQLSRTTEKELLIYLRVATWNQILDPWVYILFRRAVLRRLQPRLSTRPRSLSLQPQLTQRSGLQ
Test: human platelet binding assay ([^125 I]PTA-OH receptor ligand)
Settings: 50% inhibition of specific [^125 I]PTA-OH binding; human platelets
Description: As indicated above, compounds of the formula (I) have biological activity that is indicative of an ability to antagonise TXA2 receptors. […] The platelet binding assay used was essentially the method described by Mais et al, J. Pharm. Exp. Ther., 1985, 235(3), 729-734 where [^125 I]PTA-OH was used as the receptor ligand. The IC50 values represent the concentration which produces a 50% inhibition of specific [^125 I]PTA-OH binding. The compounds of Examples 1 to 6 were tested in the human platelet binding assays as described above and the results obtained are shown in the Table below: […]

IC50 [µM] | Compound
0.76 | O=C(O)c1ccc(CN2CCc3ccc(S(=O)(=O)Nc4cccc(Cl)c4)cc3C2)o1 [Example 5, 5-[[7-(3-chlorophenylsulphamoyl)-1,2,3,4-tetrahydroisoquinolin-2-yl]methyl]-2-furoic acid]
2.9 | O=C(O)c1ccnc(CN2CCc3ccc(S(=O)(=O)Nc4cccc(Cl)c4)cc3C2)c1 [Example 6, 2-[[7-(3-chlorophenylsulphamoyl)-1,2,3,4-tetrahydroisoquinolin-2-yl]methyl]isonicotinic acid hydrochloride]
5 | COC(=O)c1ccc(CN2CCc3ccc(S(=O)(=O)Nc4cccc(Cl)c4)cc3C2)o1 [Example 4, methyl-5-[[7-(3-chlorophenylsulphamoyl)-1,2,3,4-tetrahydroisoquinolin-2-yl]methyl]-2-furoate]

The next lines start with the molecule.

Compound | IC50 [µM]
O=C(O)c1ccccc1CN1CCc2ccc(S(=O)(=O)Nc3cccc(Cl)c3)cc2C1 [Example 1, 2-[[7-(3-chlorophenylsulphamoyl)-1,2,3,4-tetrahydroisoquinolin-2-yl]methyl]benzoic acid] | 2.6
O=C(O)c1ccc(CN2CCc3ccc(S(=O)(=O)Nc4cccc(Cl)c4)cc3C2)cc1 [Example 3, 4-[[7-(3-Chlorophenylsulphamoyl)-1,2,3,4-tetrahydroisoquinolin-2-yl]methyl]benzoic acid] | 4
O=C(O)c1cccc(CN2CCc3ccc(S(=O)(=O)Nc4cccc(Cl)c4)cc3C2)c1 [Example 2, 3-[[7-(3-Chlorophenylsulphamoyl)-1,2,3,4-tetrahydroisoquinolin-2-yl]methyl]benzoic acid] | 0.5
